Read-outs that look alike come from different tables or passages of the source.

Assay [1] deals with T1, human CB2R (SNAP-CB2) (Homo sapiens, UniProt P34972).
T1 construct: truncated CB1R (CB1R91-472) and full-length CB2R (CB2R1–360); 5HT3A signal peptide (N, cleaved yes); expressed in transfected cells; membranes
Briefly: Fluorescent ligand kinetic association binding, TR-FRET. The conditions noted are these: 25°C; for time required for equilibrium: 15 min data collection period. Here is the method:
(§1) Experiments were performed using T-REx™-293 cell membranes expressing SNAP-tagged human CB1R or CB2R (SNAP-CB1R91–472 and SNAP-CB2). All the assays were conducted at either 25°C or 37°C in white 384-well OptiPlate plates (PerkinElmer) using the PHERAstar FSX microplate reader (BMG Labtech). The TRF 337/620/520 optic module was used for all assays, except for tracer MKA-136, where the TRF 337/570/490 module was utilized. Each well was excited with four laser flashes, and signal detection was performed with a 100-μs delay, integrating the signal over 700 μs.
(§2) Assay buffer comprised HBSS (Hanks’ Balanced Salt Solution) containing 5 mM HEPES, 0.5% BSA, and 0.02% Pluronic F-127 at pH 7.4. BSA (0.5%) and 0.02% Pluronic F-127 were used to minimize the non-specific binding of hydrophobic compounds to plasticware. Membranes were preincubated with 100 μM of GppNHp at 25 or 37°C for 15 min prior to addition to the plate using automatic injectors to ensure early time points could be measured with accuracy. GppNHp is a non-hydrolyzable GTP analog that will bind to G proteins and promote the dissociation of G proteins from the receptor. This way, we promote a single population of receptors (uncoupled from G proteins) avoiding a mixed population (i.e., uncoupled receptors (R) and receptors coupled to GDP bound G proteins, or G proteins alone (RG)). Adding GTP analogs is a common strategy used in GPCR binding studies to ensure a homogeneous single-state receptor population and simplify the analysis.
(§3) To control for potential plate position effects, plate layouts were varied between independent experiments. […] D77 stock was prepared at 100x the final concentration, and 0.4 μL was added to the wells. DMSO was held constant at 2% for all assay points, including the saturation and competition binding experiments, as reflected in the text.
(§4) Fluorescent ligand binding to CB1R and CB2R was assessed via HTRF detection, allowing the construction of association binding curves. For fluorescent ligand characterization, six increasing concentrations of fluorescent ligands were prepared, and cell membranes containing human CB1R or CB2R (1 μg/well) were added (at t = 0) in a total volume of 40 μL containing 2% DMSO at 25 or 37°C, with gentle agitation. […] As the wells are read sequentially, we restricted the readout of kinetic data of two ligands per experimental run to reduce the minimum reading cycle time.
(§5) D77 association data were fitted to a global fitting model using GraphPad Prism 9.2 to simultaneously calculate k on and k off using the following equation, where k obs equals the observed rate of association and L is the concentration of D77: kobs=L⋅kon+koff (3)
A general note: In TR-FRET formats the signal depends on donor and acceptor labels being close together.

The target in assay [2] is T2, human CB1R (SNAP-CB1R91–472) (Homo sapiens, UniProt P21554).
T2 construct: SNAP-tagged human CB1R or CB2R (SNAP-CB1R91–472 and SNAP-CB2); 5HT3A signal peptide (N, cleaved yes); expressed in transfected cells; membranes
T2 sequence (P21554 91-472): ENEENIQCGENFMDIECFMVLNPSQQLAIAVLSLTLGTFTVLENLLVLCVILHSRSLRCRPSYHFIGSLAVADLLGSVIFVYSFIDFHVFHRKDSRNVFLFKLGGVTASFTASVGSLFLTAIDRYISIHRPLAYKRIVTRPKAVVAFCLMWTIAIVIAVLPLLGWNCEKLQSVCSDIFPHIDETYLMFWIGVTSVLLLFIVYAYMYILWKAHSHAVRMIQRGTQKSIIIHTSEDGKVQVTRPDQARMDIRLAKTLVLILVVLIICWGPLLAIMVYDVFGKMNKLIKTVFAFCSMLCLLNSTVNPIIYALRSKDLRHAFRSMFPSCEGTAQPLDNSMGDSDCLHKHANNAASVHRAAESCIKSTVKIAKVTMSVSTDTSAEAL
The description is as above. The conditions noted are these: 25°C; for time required for equilibrium: 15 min data collection period. As to the method:
as §1, §2, §3, §4, §5

In assay [3] the target is T2, human CB1R (SNAP-CB1R91–472). Briefly: biochemical. It counts as binding.
The target is the same in assay [4]. Briefly: biochemical. The format is binding. The source holds these as a separate data set.
The next assay relates to CB2R. The note with it: 25°C, radioligand kinetic binding assay, ref Martella et al., 2017; cited from earlier work.
Assay [5] has as its target T1, human CB2R (SNAP-CB2). It counts as binding.
A further assay concerns the target T3, truncated CB1R91-472 (Homo sapiens, UniProt P21554).
T3 construct: 5HT3A signal peptide (N, cleaved yes); expressed in transfected cells; host or cells: T-REx-293 cells, tetracycline-induced, co-expressing the Gi-CASE biosensor
The format is cell-based.

The next assay concerns the target T4, full length CB1R WT (Homo sapiens, UniProt P21554).
T4 construct: 5HT3A signal peptide (N, cleaved yes); expressed in transfected cells; host or cells: T-REx-293 cells, tetracycline-induced, co-expressing the Gi-CASE biosensor
The format is cell-based.

The target in assay [6] is T1, human CB2R (SNAP-CB2). The format is binding. The conditions noted are these: 37°C, D77 900 nM, 15-min incubation.

T1 sequence (P34972 whole entry, the tested form may be a part): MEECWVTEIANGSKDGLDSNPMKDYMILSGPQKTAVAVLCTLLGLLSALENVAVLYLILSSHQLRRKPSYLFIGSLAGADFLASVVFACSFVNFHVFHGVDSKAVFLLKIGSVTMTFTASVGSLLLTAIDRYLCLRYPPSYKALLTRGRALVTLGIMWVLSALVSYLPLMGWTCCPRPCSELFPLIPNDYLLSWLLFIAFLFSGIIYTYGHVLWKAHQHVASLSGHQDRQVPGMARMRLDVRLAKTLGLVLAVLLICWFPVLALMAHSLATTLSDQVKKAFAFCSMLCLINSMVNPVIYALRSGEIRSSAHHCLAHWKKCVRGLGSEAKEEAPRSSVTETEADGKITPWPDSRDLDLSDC
T4 sequence (P21554 whole entry): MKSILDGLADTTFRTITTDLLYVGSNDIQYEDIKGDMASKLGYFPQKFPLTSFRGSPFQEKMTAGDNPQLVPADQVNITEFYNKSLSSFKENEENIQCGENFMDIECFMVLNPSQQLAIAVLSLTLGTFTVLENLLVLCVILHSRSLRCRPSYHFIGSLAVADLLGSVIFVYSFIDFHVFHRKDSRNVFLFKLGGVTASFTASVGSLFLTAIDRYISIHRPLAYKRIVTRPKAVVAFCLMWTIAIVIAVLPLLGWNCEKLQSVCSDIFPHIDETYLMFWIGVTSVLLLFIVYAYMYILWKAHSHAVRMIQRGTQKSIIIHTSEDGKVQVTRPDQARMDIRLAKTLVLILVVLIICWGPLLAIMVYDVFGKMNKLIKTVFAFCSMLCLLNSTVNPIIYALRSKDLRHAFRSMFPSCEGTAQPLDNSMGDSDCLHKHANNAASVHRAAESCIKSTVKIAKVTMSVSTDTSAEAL
T3 sequence (P21554 91-472): as the sequence (P21554 91-472) above

Turning to `CCOC(=O)C(CC)(CCCSCCOCCOCCOCCNc1ccc([N+](=O)[O-])c2nonc12)NC(=O)c1ccc(C2CC2)c(Cc2ccc(F)cc2)n1` (stereo not shown) [NBD-694], at human CB2R (SNAP-CB2) [1], the “koff of fluorescent tracer” value came to 0.039 ± 0.00367 s⁻¹ and the “pKd of fluorescent tracer” value amounted to 6.97 ± 0.01. In addition, the “pKd of fluorescent tracer” value in assay [2] stood at 6.02 ± 0.01.
One may read the Ki as a dissociation constant, usually derived from enzyme kinetics or from competition with a known ligand. The term Kd denotes the free concentration of one partner at which half of the binding sites on the other are occupied at equilibrium, for simple one-to-one binding. Lower therefore signals a tighter complex. As to `CCCCCCC(C)(C)c1cc(OC)c([C@@H]2C=C(CO)[C@@H]3C[C@H]2C3(C)C)c(OC)c1` [HU-308], affinity in [3] was put at a Ki of 3.89 µM. In addition, the dissociation constant (Kd) is 4.47 µM in assay [4] (pK d (kinetic)) and 4.27 µM in assay [4] (pKd (kinetic)).
Consider `CCCCCc1cc(O)c2c(c1)OC(C)(C)[C@@H]1CC=C(CNC(=O)CCCCCCNc3ccc([N+](=O)[O-])c4nonc34)C[C@@H]21` [MKA-136], for which, at human CB2R (SNAP-CB2) [1], the “koff of fluorescent tracer” value was 0.0035 ± 0.0012 s⁻¹, the “pKd of fluorescent tracer” value stood at 6.71 ± 0.41 and the “time required for equilibrium” value is above 15 min. Also, in assay [2], the “time required for equilibrium” value is on record as above 15 min.
Regarding `CCCCCCC(C)(C)c1cc(OC)c(C2C=C(CNC(=O)CCCCCCNc3ccc([N+](=O)[O-])c4nonc34)C3CC2C3(C)C)c(OC)c1` (stereo not shown) [MKA-115], the “time required for equilibrium” value (at human CB2R (SNAP-CB2) [1]; in [2]) was above 15 min throughout.
The koff is the first-order rate constant of dissociation. Low values mean slow dissociation, high ones fast dissociation. As to SR 144528, the residence time with CB2R is 8.7 min. In [4], the k off was 0.0832 ± 0.0122 s⁻¹ and the koff was determined as 0.0387 ± 0.00333 s⁻¹. For the same compound, on human CB2R (SNAP-CB2) [5] (25°C), the “Residence time (Rt) (s)” value was 379 ± 27 s and the dissociation rate constant (koff) came out at 0.00267 ± 0.00017 s⁻¹. The “Residence time (Rt) (min)” value on human CB2R (SNAP-CB2) [5] (25°C, listed as SR 144,528) is listed as 6.3 min. The “Residence time (Rt) (min)” value on human CB2R (SNAP-CB2) [5] (25°C, listed as SR-144528) is on record as 6.32 ± 0.45 min. Also, at human CB2R (SNAP-CB2) [5] (37°C), the k off was 0.0115 ± 0.0005 s⁻¹; the k on entry was “(2.47 ± 0.16) × 10^8 M^−1 min^−1”; the “k on (text, shared exponent)” value is 4.17e+06 M⁻¹ s⁻¹. In addition, on human CB2R (SNAP-CB2) [5] (37°C, Rt = 1/k off), the “Residence time (Rt) (min)” value is on record as 1.46 ± 0.07 min and the “Residence time (Rt) (s)” value amounted to 87 ± 4 s.
Take `CCOC(=O)C(CC)(CCCSCCOCCOCCNc1ccc([N+](=O)[O-])c2nonc12)NC(=O)c1ccc(C2CC2)c(Cc2ccc(F)cc2)n1` (stereo not shown) [NBD-691]: at human CB2R (SNAP-CB2) [1], the “koff of fluorescent tracer” value was 0.0208 ± 0.001 s⁻¹ and the “pKd of fluorescent tracer” value turned out to be 7.20 ± 0.01. For the same compound, in [2], the “pKd of fluorescent tracer” value turned out to be 6.04 ± 0.01.
For the compound `CCCCCc1cc(O)c2c(c1)OC(C)(C)[C@@H]1CC=C(CNC(=O)CCCCC[n+]3cc(S(=O)(=O)[O-])ccc3/C=C/c3cc4ccc(N(CC)CC)cc4oc3=O)C[C@@H]21` [MKA-138], at human CB2R (SNAP-CB2) [1], the “koff of fluorescent tracer” value came out at 0.0153 ± 0.0015 s⁻¹ and the “pKd of fluorescent tracer” value stood at 6.97 ± 0.08. In assay [2], the “koff of fluorescent tracer” value was 0.15 ± 0.03 s⁻¹ and the “pKd of fluorescent tracer” value stood at 6.31 ± 0.05.
For the compound `CCOC(=O)C(CC)(CCCSCCOCCNc1ccc([N+](=O)[O-])c2nonc12)NC(=O)c1ccc(C2CC2)c(Cc2ccc(F)cc2)n1` (stereo not shown) [NBD-690], on human CB2R (SNAP-CB2) [1], the “koff of fluorescent tracer” value was found to be 0.0162 ± 0.00083 s⁻¹ and the “pKd of fluorescent tracer” value is on record as 7.15 ± 0.02. In [2], the “koff of fluorescent tracer” value amounted to 0.128 ± 0.00733 s⁻¹ and the “pKd of fluorescent tracer” value is reported as 6.13 ± 0.09.
The corresponding values for `CCOC(=O)C(CC)(CCCSCCOCCOCCOCCOCCNc1ccc([N+](=O)[O-])c2nonc12)NC(=O)c1ccc(C2CC2)c(Cc2ccc(F)cc2)n1` (stereo not shown) [NBD-698] are 0.0475 ± 0.00667 s⁻¹, 6.93 ± 0.05, 0.166 ± 0.004 s⁻¹ and 6.22 ± 0.01.
For orientation: pEC50 means the EC50 on a negative log10 scale, so that one unit is a factor of ten. High values mean a low EC50, low ones a high EC50. In the case of `CCCCCCC(C)(C)c1cc(O)c2c(c1)OC(C)(C)[C@@H]1CC=C(CO)C[C@@H]21` [HU-210], at truncated CB1R91-472, the “Emax (%)” value came to 104.1 ± 4.7% and the negative logarithm of the EC50 (pEC50) was 9.15 ± 0.09. For the same compound, at full length CB1R WT, the “Emax (%)” value amounted to 98.2 ± 6.8% and the pEC50 is on record as 8.97 ± 0.08. In [3], this compound came in with a pK i of 7.99 ± 0.01. Moreover, in assay [4], the “pK d (kinetic)” value was 8.65 ± 0.01 and the “pKd (kinetic)” value was determined as 8.64 ± 0.02.
With `CCCCC/C=C\C/C=C\C/C=C\C/C=C\CCCC(=O)OC(CO)CO` [2-AG], the pK i on human CB2R (SNAP-CB2) [6] is on record as 5.81 ± 0.03. The “pKd (kinetic)” value at human CB2R (SNAP-CB2) [5] (25°C) is 6.36 ± 0.06. In addition, on human CB2R (SNAP-CB2) [5] (37°C), the “pK d (kinetic)” value turned out to be 5.92 ± 0.04.

The values are drawn from publication PMC12015242, “A universal cannabinoid CB1 and CB2 receptor TR-FRET kinetic ligand-binding assay” (Frontiers in Pharmacology, 2025).
